Reference: patent publication US4609733A, “3-keto-substituted-N-pyridylindoles” (Ciba-Geigy Corporation, priority 1984, dated 1986)

Assays:
[1] = target: T1, prostaglandin cyclooxygenase (Bos taurus, UniProt O62664); test: in-vitro effect on prostaglandin cyclooxygenase; assay type: biochemical; settings: read-out: IC50 for cyclooxygenase inhibition
T1 construct: from tissue; host or cells: bovine seminal vesicles (microsomes)
T1 sequence (O62664 25-600): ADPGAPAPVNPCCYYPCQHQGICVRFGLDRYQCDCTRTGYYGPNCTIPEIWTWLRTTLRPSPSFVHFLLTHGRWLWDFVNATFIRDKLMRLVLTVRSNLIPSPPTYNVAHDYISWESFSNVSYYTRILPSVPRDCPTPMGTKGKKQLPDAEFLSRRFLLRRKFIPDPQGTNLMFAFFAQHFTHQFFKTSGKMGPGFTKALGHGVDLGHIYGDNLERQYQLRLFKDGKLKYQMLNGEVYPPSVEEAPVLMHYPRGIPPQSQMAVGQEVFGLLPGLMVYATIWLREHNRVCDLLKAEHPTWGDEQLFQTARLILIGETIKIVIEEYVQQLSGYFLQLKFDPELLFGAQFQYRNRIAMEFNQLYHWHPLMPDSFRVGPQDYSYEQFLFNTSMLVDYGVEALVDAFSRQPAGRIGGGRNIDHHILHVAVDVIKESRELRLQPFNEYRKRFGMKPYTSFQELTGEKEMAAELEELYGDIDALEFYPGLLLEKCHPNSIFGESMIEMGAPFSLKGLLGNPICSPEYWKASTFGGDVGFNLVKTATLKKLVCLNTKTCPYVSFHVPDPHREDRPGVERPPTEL
Experimental: The in-vitro effect on prostaglandin cyclooxygenase is measured by a modification of the method of Takeguchi et al. described in Biochemistry 10, 2372 (1971); the testing procedure is described in U.S. Pat. No. 4,460,777.

[2] = target: T2, thromboxane synthetase (Homo sapiens, UniProt P24557); test: in vitro inhibition of the thromboxane synthetase enzyme; assay type: biochemical
T2 construct: from tissue; host or cells: human platelets (microsomes)
T2 sequence (P24557 1-533): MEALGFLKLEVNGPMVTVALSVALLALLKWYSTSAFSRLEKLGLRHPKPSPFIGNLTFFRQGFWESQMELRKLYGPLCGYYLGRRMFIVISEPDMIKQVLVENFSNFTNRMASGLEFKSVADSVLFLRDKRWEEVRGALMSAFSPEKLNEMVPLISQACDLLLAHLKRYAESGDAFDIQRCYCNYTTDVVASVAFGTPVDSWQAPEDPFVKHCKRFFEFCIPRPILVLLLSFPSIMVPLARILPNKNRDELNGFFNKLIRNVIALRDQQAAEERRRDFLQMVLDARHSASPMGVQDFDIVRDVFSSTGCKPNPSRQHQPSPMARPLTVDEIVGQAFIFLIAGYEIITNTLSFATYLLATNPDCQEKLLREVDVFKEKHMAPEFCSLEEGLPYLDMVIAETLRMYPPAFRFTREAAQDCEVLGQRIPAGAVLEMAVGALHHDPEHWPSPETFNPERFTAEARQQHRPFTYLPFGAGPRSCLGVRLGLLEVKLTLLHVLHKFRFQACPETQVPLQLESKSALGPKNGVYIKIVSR
Source text: Res. Comm. 74, 1432 (1977). The testing procedure is essentially carried out as described in U.S. Pat. No. 4,460,777.

| IC50 [1] | IC50 [2] | Structure (SMILES) |
| --- | --- | --- |
| > 1000 µM |  | O=C(O)CCCCc1cn(-c2cccnc2)c2ccccc12 [3-(4-carboxybutyl)-N-(3-pyridyl)indole, 3-(4-carboxybutyl)-N-(3-pyridyl)-indole] |
|  | ~0.4 µM | O=C(O)CCCC(=O)c1cn(-c2cccnc2)c2ccccc12 [Example 2, 3-(1-oxo-4-carboxybutyl)-N-(3-pyridyl)-indole] |
